Assay results reported in ChEMBL document CHEMBL4340552, “Identification of BMI1 promoter inhibitors from Streptomyces sp. IFM-11958” (Bioorg Med Chem, 2019).

Experiments:
[1] = Inhibition of BMI1 promoter in HEK293T cells incubated for 24 hrs by luciferase reporter gene assay; assay type: cell-based; conditions: Homo sapiens, HEK-293T
[2] = test system: DU-145; assay: Up-regulation of p16Ink4a mRNA expression in human DU145 cells incubated for 24 hrs by Quantitative RT-PCR analysis; assay type: functional, cell-based
[3] = test system: HEK293; assay: Cytotoxicity against HEK293 cells assessed as reduction in cell viability incubated for 24 hrs by FMCA method; assay type: cell-based; conditions: Homo sapiens, HEK293, 24 h
[4] = test system: DU-145; assay: Down-regulation of BMI1 protein expression in human DU145 cells incubated for 24 hrs by Western blot analysis; assay type: functional, cell-based
[5] = test system: Huh-7; assay: Inhibition of sphere formation in human HuH7 cells incubated for 72 hrs by sphere forming assay; assay type: functional, cell-based
[6] = test system: DU-145; assay: Cytotoxicity against human DU145 cells assessed as reduction in cell viability incubated for 24 hrs by FMCA method; assay type: functional, cell-based; conditions: DU-145, 24 h
[7] = test system: DU-145; assay: Down-regulation of BMI1 mRNA expression in human DU145 cells incubated for 24 hrs by Quantitative RT-PCR analysis; assay type: functional, cell-based
[8] = test system: DU-145; assay: Down-regulation of c-Myc protein expression in human DU145 cells incubated for 24 hrs by Western blot analysis; assay type: functional, cell-based
[9] = test system: Huh-7; assay: Cytotoxicity against human HuH7 cells assessed as reduction in cell viability incubated for 24 hrs by FMCA method; assay type: functional, cell-based; conditions: Huh-7, 24 h

IC50 [1] [nM] | SMILES | Activity [2] | IC50 [3] [nM] | inhibition [4] | inhibition [5] | IC50 [6] [nM] | Activity [7] | inhibition [8] | IC50 [9] [nM]
22000 | O=C1CCC(=O)N(O)CCCCCNC(=O)CCC(=O)N(O)CCCCCNC(=O)CCC(=O)N(O)CCCCCN1 [NOCARDAMINE] |  |  |  |  |  |  |  | 
447 | CC[C@@H]1[C@@H](C)O[C@@](O)([C@@H](C)[C@H](O)[C@H](C)[C@H]2OC(=O)/C=C/C=C/[C@H](C)[C@@H]([C@@H](C)[C@@H](O)[C@H](C)[C@@]3(O)C[C@@H](O[C@H]4C[C@H](O)[C@H](O)[C@H](C)O4)[C@H](CC)[C@@H](C)O3)OC(=O)/C(C)=C/C=C/[C@@H]2C)C[C@H]1O[C@H]1C[C@H](O)[C@H](O)[C@H](C)O1 |  |  |  |  |  |  |  | 

SMILES | IC50 [1] [nM] | Activity [2] | IC50 [3] [nM] | inhibition [4] | inhibition [5] | IC50 [6] [nM] | Activity [7] | inhibition [8] | IC50 [9] [nM]
CC[C@@H]1[C@@H](C)O[C@@](O)([C@@H](C)[C@H](O)[C@H](C)[C@H]2OC(=O)/C=C/C=C/[C@H](C)[C@@H]([C@@H](C)[C@@H](O)[C@H](C)[C@@]3(O)C[C@@H](O[C@H]4C[C@H](O)[C@H](O)[C@H](C)O4)[C@H](CC)[C@@H](C)O3)OC(=O)/C=C/C=C/[C@@H]2C)C[C@H]1O[C@H]1C[C@H](O)[C@H](O)[C@H](C)O1 | 30 | Dose-dependent effect | 200 | Dose-dependent effect | Dose-dependent effect | 31 | Dose-dependent effect | Dose-dependent effect | 4.2
